Data on eight molecules can be found in patent US6780984B2, “Method for prognosing cancer and the proteins involved” (Northwestern University, priority 2000, dated 2004).

In test [1] the test system is PC3 cells transfected with the tripartite fusion protein. As to the kind of experiment: FACS analysis of annexin V staining. The format is cell-based, human. To be noted: 300 nM OHT for 72 hours, cells expressing GFP-TRAITS-ER. How it is done: (§1) FIGS. 16a-16c show the apoptosis induction by TRAITS activation. […] The GFP-TRAITS-ER protein is localized primarily in cytoplasm in the absence of OHT, as visualized under green fluorescent microscope. The fusion protein was translocated into nuclei 24 hours after treatment of the cells with 300 nM OHT and then condensed in the fragmented nuclei 48 hours after the OHT treatment. The condensed and fragmented nuclei of the OHT-treated PC3 cells were then visualized by Hoechst staining. […] The PC3 cells were cultured in the absence or presence of 300 nM OHT for 72 hours prior to FACS analysis. The figure represents one of the 3 different experiments.
(§2) Cell death assays flow cytometry analysis: In flow cytometry analysis, cells cultured under the indicated conditions were harvested for staining with the TACS™ Annexin V-Biotin apoptosis detection kit (R & D systems). Propidium iodide was used for nuclei staining and Cy5 was conjugated to Annexin V-biotin. Apoptosis of Annexin V-positive cells was analyzed by FACS. Hoechst 33342 (Molecular Probes) was used for nuclear condensate staining and DNA fragmentation assay.

In test [2] the test system is PC3 cells. As to the kind of experiment: Apoptosis induction by GFP fusion constructs transfected into PC3 cells. It is filed as cell-based, human. To be noted: for cells expressing the GFP fusion protein: 10 days in medium including 500 μg/ml geneticin (G418); for role of domain in apoptosis induction: domain mapping / deletion mutagenesis, GFP fusions. How it is done: as §1
(§3) Vector constructions and mutagenesis: The cDNAs of rat and human TRAITS were cloned into pEGFP C1, pEGFP N3, PM and pIRES2-EGFP(Clontech) by PCR. Deletion mutagenesis of TRAITS were generated by PCR and cloned into above first three vectors. The plasmids containing ER™ domain were kindly provided by G. Evan (UCSF, San Francisco). ER™ domain was cut with BamHI/EcoRI and recloned into pEGFP-TRAITS to generate a tripartite fusion protein. All constructions were verified by sequencing and transfected using Lipofectamine (Gibco), Super Fect reagent (Qiagen) or Fugene 6 (Roche). In stable transfection, 500 μg/ml geneticin (G418) was used for selection of positive clones.
Genomic structure and mutagenesis of TRAITS: TRAITS is composed of six exons (FIG. 18) which in humans encode respectively, 35 amino acid residues, 32 amino acid residues, 46 amino acid residues, 48 amino acid residues, 85 amino acid residues, and 14 amino acid residues (see FIG. 14a for exon junctions). In an effort to determine the role of individual domains, domain mapping was performed by fusing nucleic acids encoding GFP to nucleic acids encoding fragments of the TRAITS in pEGFPN3 vectors. The vectors was then used for transient and stable transfection of PC3 cells. The ability of the various constructs to induce apoptosis was determined.

Test [3] has as its system PC3 cells. Briefly: Proliferation assay (cell numbers). The format is cell-based, human. To be noted: ectopic expression, stably transfected PC3 sublines, culture in 6-well plates 4-5 days. From the text: The cell numbers of the parental PC3, empty pcDNA3.1 vector transfected PC3 sublines M1 and M2, and pcDNA3.1-TID-1 transfected PC3 sublines 27, 41, and 44 were counted after culture in 6-well plates for 4 days.
The cell numbers of the parental PC3, empty pCMV-Tag vector transfected PC3 sublines fM1 and fM2, and pCMV-Tag-fTID-1 transfected PC3 sublines f33, f17, and f23 were counted after culture in 6-well plates for 5 days. The proliferation and soft agar assays are described in Methods of Example 3 below.
Proliferation assay: Cells were plated onto 6-well plates in triplicate at 50,000 cells/well and cultured in RPMI 1640 medium supplemented with 10% fetal bovine serum (FBS), and 1% penicillin/streptomycin. The cells were trypsinized and counted each day afterwards for a five-day time course. The data were plotted using the GraphPad Prism software. The error bars represent SEM and they are difficult to see when SEM is very small. The cell proliferation assay was repeated 3 times and the results were very reproducible.

The next test deals with LNCaP. Briefly: Stable transfection of LNCaP with CMV-fTID-1. It is filed as cell-based, human. To be noted: two different experiments. From the text:
The CMV-fTID-1 expression vector was also transfected into LNCaP, an androgen-responsive human prostate cancer cell line [Horoszewicz et al., Cancer Research 43:1809-18 (1983)], in two different experiments. […] The expression of the endogenous TID-1 gene was also not detected in the rat Dunning tumor cell lines (FIGS. 10A-10B) and various human prostate cancer cell lines including LNCaP, PC3, DU145, and TSU cells. […] Stable expression was observed using a CMV promoter-based expression vector. Clonal variations of stably transfected cells can be minimized by assaying multiple, (e.g., three) independent stably transfected sublines.

The subject of test [4] is AT6.1 xenograft prostate tumor. As to the kind of experiment: AT6.1 prostatic xenograft tumor growth in nude mice. It is filed as in vivo. From the text:
The tamoxifen pellets were implanted at the time of AT6.1 cell injection. The error bars represent S.E.M. The tamoxifen inhibition of AT6.1 tumor growth was statistically significant (p<0.005) at every time point of tumor measurement. […] The loading of total RNA was visualized by methylene blue staining. FIG. 17c is the northern blot analysis of TRAITS expression in rat prostatic tissues and cancer cell lines. The loading of total RNA was visualized by methylene blue staining. […] Affinity purified anti-human TRAITS polyclonal antibody was used in immunostaining of radical prostatectomy specimens from 8 patients with advanced prostate cancer (Gleason-score 7 to −10). […] A typical TRAITS down-regulation was shown with 20× objective (left) and the boxed area shown at high magnification (middle). A parallel staining without primary antibody (right) was conducted as a control. Blue arrows with solid line point to benign epithelial cells whereas red arrows with broken line indicate cancerous cells.
Tumor growth: To determine their tumorigenicity, AT6.1 cells were injected subcutaneously (1×10^5 cells) into 4-6 week old male nu/nu mice (NCI). […] Tumor sizes were calculated using formula V=π×h (h^23a^2)/6, a=(L((+))W)/4 (Nature, 405:354-359) and the Student's t-test (two-tailed) was performed to analyze statistical significance using the SPSS 10.0 software (SPSS Inc., Chicago, Ill.).

The subject of test [5] is PC3 cells. As to the kind of experiment: Soft agar assay (anchorage-independent growth). It is filed as cell-based, human. To be noted: stable overexpression in PC3 sublines. How it is done: FIGS. 4A-4D show the effect of calreticulin overexpression on colony formation of PC3 cells in a soft agar assay, PC3 (FIG. 4A), Mock (FIG. 4B), Crt 35 (FIG. 4C) and Crt 59 (FIG. 4). The soft agar assay was conducted in 6-well plates. The bottom agar is 2 ml 0.6% noble agar containing 1×RPMI 1640 medium supplemented with 10% fetal bovine serum (FBS). After the preparation of bottom agar, 1 ml of 0.3% top agar containing 5,000 cells and 1×RPMI 1640 medium supplemented with 10% FBS was added to form the top layer. The assay for each PC3 subline was carried out in duplicate and was repeated at least 3 times.
Colonies with greater than 125 um in diameter were counted in the quantification. Error bars represent standard error means (SEM).
Soft agar assay: The soft agar assay was conducted in 6-well plates. The bottom agar is 2 ml 0.6% noble agar containing 1×RPMI 1640 medium supplemented with 10% FBS. After the preparation of bottom agar, 1 ml of 0.3% top agar containing 5,000 cells and 1×RPMI 1640 medium supplemented with 10% FBS was added to form the top layer. The assay for each PC3 subline was carried out in duplicate and was repeated at least 3 times.

For test [6], the system named is CAT reporter gene expression. Briefly: Mammalian two-hybrid analysis, CAT reporter assay in NIH3T3 cells. It is filed as cell-based. How it is done: A non-specific complex (*) in the presence of GST-TRAITS was also formed in the presence of GST only. Labeled free DNA (F) was also indicated. […] NIH3T3 cells were transiently transfected with empty vector (PM) or vectors expressing the full-length rat TRAITS (residues 1-262 of SEQ ID NO:14), its N-terminal (residues 1-113 of SEQ ID NO:14), or its C-terminal (residues 114-262 of SEQ ID NO:14) plus pG5CAT reporter and pSV-β-gal for normalization. Assays were performed after 24 hours of transfection. The fold activation of CAT reporter is shown with S.E.M. Assays were performed in triplicate in two separate experiments.
CAT reporter assays: CAT activities were assayed 24 hours after transfection. NIH3T3 cells were grown in 6-well plates and transfected using Superfect (Qiagen). For transient transfection, 2 μg of PM constructions, 2 μg of pSVβ-gal (internal control) and 2 μg of pG5CAT (Clontech) were used per well. The level of CAT protein in cell extracts was determined using a CAT ELASA kit (Roche) according to the manufacturer. Protein concentration was measured using a Dc protein Assay kit (Bio-Rad). β-Galactosidase activity was measured by incubating with ONPG (o-nitrophenyl-β-D-galactopyranoside) solution. Data are reported as means ±S.E.M. of two separate experiments performed in triplicate.

The test system of test [7] is human prostate cancer cell lines (LNCaP, PC3, DU145 and TSU), rat Dunning prostate tumor cell lines, NIH3T3 and Hela. Briefly: Cell death after transient transfection of TRAITS expression vectors. It is filed as cell-based.
Description: as §3, §2
To further characterize the function of TRAITS, green fluorescent protein (GFP) was tagged to TRAITS at its N-terminal or C-terminal ends using pEGFP C1 and pEGFP N3 vector, respectively (Clontech). […]

The next test has as its system ventral prostate. As to the kind of experiment: C3(I)-TID-1 transgenic mice. It is filed as in vivo, mouse. To be noted: transgenic vs non-transgenic littermates. The text has this:
To study the role of TRAITS protein in the prostate in vivo, an expression vector, C3 (I)-TID-1, was generated that expresses TRAITS under the control of the prostate C3(I) promoter [Zhang et al., Prostate, 32:16-26 (1997)]. The C3(I) promoter is androgen-dependent and active only in the ventral prostate and testis. Two transgenic mouse lines were identified by PCR amplification of the tail genomic DNA using primers specific for the TRAITS transgene. […] The C3(I)-TID-1 transgenic mice are fertile.

Regarding 4-hydroxytamoxifen [OHT], the “apoptotic cells (annexin V)” value in test [1] stood at 60.7%.
Turning to “N-terminal region of TRAITS: approximately amino acids 1-113 of TID-1, fused to GFP”, in the test with PC3 cells [2], the “cells expressing the GFP fusion protein” value was “none of the cells were found to express the N-terminal fusion protein”; the “role of domain in apoptosis induction” value was “necessary and sufficient for inducing apoptosis”.
“exon III: TRAITS fragment corresponding to amino acids 68-113 of SEQ ID NO:18, fused to GFP”: the “role of domain in apoptosis induction” value in the test on PC3 cells [2] is “both necessary and sufficient to induce apoptosis”.
With “fTID-1: FLAG tagged TID-1 protein expressed from pCMV-Tag-fTID-1”, the “reduction in cell numbers” value in the test with PC3 cells [3] is recorded as 2 fold. Further, the “recovery of clones expressing fTID-1” value in the test on LNCaP is listed as “no LNCaP clones expressing fTID-1 were found”.
For the molecule `CC/C(=C(\c1ccccc1)c1ccc(OCCN(C)C)cc1)c1ccccc1` [tamoxifen], the “growth of xenograft tumors from parental or GFP-ER transfected AT6.1 cells” value in [4] (tamoxifen administration, parallel experiments) was “no detectable influence”. In [4] (tamoxifen pellets implanted at cell injection, p<0.005), the “growth of xenograft tumors from AT6.1 sublines expressing GFP-TRAITS-ER” value was “significantly inhibited”.
In the case of “TID-1: novel testosterone regulated apoptosis inducer and tumor suppressor; transcription factor, SEQ ID NOs:14 (rat), 16 (mouse), 18 (human)”, the “colony formation in soft agar” value in the test with PC3 cells [5] is “inhibition of the size and number of colonies”. Further, the “reduction in cell numbers” value in the test on PC3 cells [3] came out at 2 fold. Further, the “transactivation of CAT reporter gene expression” value in [6] (24 hours after transfection) is listed as “more than 40 fold”. The “programmed cell death phenotype of transfected cells” value in test [7] is “efficiently induced chromatin condensation and cell death”. In addition, the “enhancement of epithelial cell number per unit area in the ventral prostate” value in the test with ventral prostate is on record as 2-3 fold.
For the molecule “EAF1: protein with sequence homology to TRAITS, SEQ ID NO:20; tested as GFP fusion”, the cell death result in the test on PC3 cells [2] (GFP fusion proteins from pEGFP N3, human and mouse) is “cause cell death”.

B1: C-terminal region: remaining approximately 147-149 amino acids of TID-1 containing the transactivation domain (protein)
chain: GEGSSKIQCRLEQQQQQMWNPPRTSNLVQHSPSEDKLSPTSLMDDIERELKAEASLMDQMSSCDSSSDSRSSSSSSSEDSSSDSEDDDRSSPSGPRRYSSEHPSVSAGPQYRTSDADTTCNRLYDNSALLMSTLRSDLQLSESDSDSED
For the molecule B1, in test [6] (deletion of the N-terminal region), the “transactivation relative to full-length (deletion mutagenesis)” value was “enhance the transactivation”. For the same molecule, in the test on PC3 cells [2], the “cells expressing the GFP fusion protein” value is listed as “many of the cells expressed the C-terminal fusion protein” and the “role of domain in apoptosis induction” value was “not required for TRAITS to induce apoptosis”.
